From US8778919B2, “Cyclic anilino—pyridinotriazines” (Janssen Pharmaceutica NV, priority 2005, dated 2014)

Legend:
[1] = system: Chang cells; assay: GSK-3 cellular assay (C2): 14C-D-glucose incorporation into glycogen; type: cell-based; conditions: increase in D-glucose incorporation into glycogen, test concentration of 10^−6 M
Method: Test compounds were tested for their ability to increase the incorporation of ^14C-D-glucose into glycogen in living cells. To do this, Chang cells (360,000 cells/well) were cultured in 0.5 ml of MEM Rega 3 medium supplemented with 10% fetal calf serum, 1% L-glutamine and 2% sodium carbonate. After 3 days, cells were washed with 0.5 ml of phosphate-buffered saline and overlayed with 1 ml of serum- and glucose-free DMEM medium. Then, 2 μl of compound in DMSO and 50 μl substrate (3 mM glucose and 0.5 μCi ^14C-D-glucose were added and the cultures were incubated for 90 min. Cells were then extracted with 0.5 ml of 20% KOH for 60 min at 37° C. and the cell lysates were transferred to 10 ml tubes containing 300 μl of 1 mg/ml glycogen as […]. Following the addition of 2 ml ethanol, total glycogen was precipitated overnight at −20° C. and the precipitates were recovered by centrifugation. Precipitates were then resuspended in 1 ml of water and transferred to scintillation counter vials. and the amount of ^14C-D-glucose incorporation into glycogen was measured by scintillation counting. Scores for the compounds according to the invention, were obtained at a test concentration of 10^−6 M. Score 1=10-30% increase, Score 2=30-60% increase, Score 3=60-80% increase and Score 4=>80% increase in D-glucose incorporation.

[2] = target: GSK-3β (Homo sapiens, UniProt P49841); assay: GSK-3 kinase assay (C1), GSK-3β; type: biochemical; conditions: 1 μM ATP, read-out: C1 Score β
GSK-3β, sequence (P49841 whole entry, species assumed): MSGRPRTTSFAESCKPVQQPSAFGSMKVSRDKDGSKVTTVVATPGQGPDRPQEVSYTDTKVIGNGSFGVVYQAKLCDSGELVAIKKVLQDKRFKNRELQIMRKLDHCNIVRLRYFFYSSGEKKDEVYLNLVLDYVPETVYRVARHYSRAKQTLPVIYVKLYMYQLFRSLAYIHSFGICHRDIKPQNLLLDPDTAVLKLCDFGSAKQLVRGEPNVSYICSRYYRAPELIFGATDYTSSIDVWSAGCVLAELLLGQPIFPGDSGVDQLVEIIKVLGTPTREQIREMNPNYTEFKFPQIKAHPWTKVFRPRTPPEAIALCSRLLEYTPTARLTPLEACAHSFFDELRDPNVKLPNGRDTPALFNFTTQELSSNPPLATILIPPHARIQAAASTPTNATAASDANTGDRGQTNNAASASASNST
Method in brief: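 Radiometric SPA at room temperature in 25 mM Tris pH 7.4 with 10 mM MgCl2, 1 mM DTT, 5.7 ng/μl GSK-3β or 0.25 ng/μl GSK-3α, 5 μM biotinylated CREB peptide and 1 μM ATP plus ^33P-ATP. Stopped after 1 h; IC50 from dose-response versus no-compound control, reported as pIC50 score bands.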

[3] = target: CDK1/cyclinB (h) (Homo sapiens, UniProt P06493); assay: Kinase profiling C3.2 CDK1/cyclinB human; type: biochemical; conditions: test concentration of 10^−6 M
CDK1/cyclinB (h), sequence (P06493 whole entry): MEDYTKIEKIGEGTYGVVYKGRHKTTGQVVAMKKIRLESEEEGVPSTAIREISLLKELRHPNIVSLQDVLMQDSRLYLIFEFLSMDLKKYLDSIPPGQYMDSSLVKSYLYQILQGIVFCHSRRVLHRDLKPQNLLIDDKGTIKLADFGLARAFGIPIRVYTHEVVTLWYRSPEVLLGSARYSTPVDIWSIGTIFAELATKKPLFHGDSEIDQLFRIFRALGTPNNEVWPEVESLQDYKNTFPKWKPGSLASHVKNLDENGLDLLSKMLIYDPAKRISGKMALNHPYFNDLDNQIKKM
CDK1/cyclinB (h), sequence (P14635 whole entry partner): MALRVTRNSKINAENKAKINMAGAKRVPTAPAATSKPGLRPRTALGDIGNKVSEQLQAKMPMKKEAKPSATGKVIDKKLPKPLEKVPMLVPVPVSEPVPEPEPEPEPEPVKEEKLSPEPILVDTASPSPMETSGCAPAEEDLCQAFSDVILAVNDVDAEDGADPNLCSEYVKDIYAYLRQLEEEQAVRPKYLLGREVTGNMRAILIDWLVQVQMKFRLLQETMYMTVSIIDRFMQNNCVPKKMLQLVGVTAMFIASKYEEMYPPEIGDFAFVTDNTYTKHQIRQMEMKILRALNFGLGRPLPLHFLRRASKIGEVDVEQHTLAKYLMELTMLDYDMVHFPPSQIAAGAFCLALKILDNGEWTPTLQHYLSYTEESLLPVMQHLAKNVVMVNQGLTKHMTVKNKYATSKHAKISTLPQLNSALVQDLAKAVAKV
Method in brief: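 Radiometric filter-binding assay: human CDK1/cyclinB (5-10 mU) with 0.1 mg/ml histone H1 substrate and [γ-33P]ATP in 8 mM MOPS pH 7.0, 10 mM Mg acetate, 40 min at room temperature. Stopped with phosphoric acid; substrate-bound 33P counted on P30 filtermat by scintillation.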

[4] = target: Yes (h) (Homo sapiens, UniProt P07947); assay: Kinase profiling C3.10 Yes human; type: biochemical; conditions: test concentration of 10^−6 M
Yes (h), sequence (P07947 whole entry): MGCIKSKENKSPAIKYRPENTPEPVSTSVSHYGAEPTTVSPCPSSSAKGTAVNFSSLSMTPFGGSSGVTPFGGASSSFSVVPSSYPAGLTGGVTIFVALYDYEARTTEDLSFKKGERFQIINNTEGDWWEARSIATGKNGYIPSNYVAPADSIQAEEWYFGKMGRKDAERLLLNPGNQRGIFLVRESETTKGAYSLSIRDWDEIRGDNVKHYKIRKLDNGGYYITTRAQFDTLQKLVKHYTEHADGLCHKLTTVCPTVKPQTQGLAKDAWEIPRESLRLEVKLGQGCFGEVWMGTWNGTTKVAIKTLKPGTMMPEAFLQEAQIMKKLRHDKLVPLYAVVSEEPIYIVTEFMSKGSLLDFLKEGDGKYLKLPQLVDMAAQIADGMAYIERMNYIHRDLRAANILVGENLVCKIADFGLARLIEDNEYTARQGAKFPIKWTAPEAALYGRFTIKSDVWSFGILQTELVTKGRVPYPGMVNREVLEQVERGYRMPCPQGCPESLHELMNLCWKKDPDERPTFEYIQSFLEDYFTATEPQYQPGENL
Method: The in vitro inhibition of a panel of kinases was assessed using either the glass-fiber filter technology as described by Davies, S. P. et al., Biochem J. (2000), 351; p. 95-105. In the glass-fiber filter technology the activity of the kinase of interest is measured using an appropriate substrate that is incubated with the aforementioned kinase protein in the presence of (^33P) radiolabeled ATP. (^33P) Phosporylation of the substrate is subsequently measured as radioactivity bound on a glassfiber-filter.
All kinases are pre-diluted to a 10× working concentration prior to addition into the assay. The composition of the dilution buffer for each kinase is detailed below.
All substrates are dissolved and diluted to working stocks in de-ionised water, apart from histone H1 that is stored in 10× working stock in 20 mM MOPS pH 7.4.
In a final reaction volume of 25 μl, Yes (h) (5-10 mU) is incubated with 8 mM MOPS pH 7.0, 0.2 mM EDTA, 0.1 mg/ml poly(Glu, Tyr) 4:1, 10 mM MgAcetate and [γ-^33P-ATP] (specific activity approx. 500 cpm/pmol, concentration as required). The reaction is initiated by the addition of the MgATP mix. After incubation for 40 minutes at room temperature, the reaction is stopped by the addition of 5 μl of a 3% phosphoric acid solution. 10 μl of the reaction is then spotted onto a Filtermat A and washed three times for 5 minutes in 75 mM phosphoric acid and once in methanol prior to drying and scintillation counting.

[5] = target: CDK6/cyclinD3 human (Homo sapiens, UniProt Q00534); assay: Kinase profiling C3.7 CDK6/cyclinD3 human; type: biochemical; conditions: CDK6/cyclinD3, test concentration of 10^−6 M
CDK6/cyclinD3 human, sequence (Q00534 whole entry): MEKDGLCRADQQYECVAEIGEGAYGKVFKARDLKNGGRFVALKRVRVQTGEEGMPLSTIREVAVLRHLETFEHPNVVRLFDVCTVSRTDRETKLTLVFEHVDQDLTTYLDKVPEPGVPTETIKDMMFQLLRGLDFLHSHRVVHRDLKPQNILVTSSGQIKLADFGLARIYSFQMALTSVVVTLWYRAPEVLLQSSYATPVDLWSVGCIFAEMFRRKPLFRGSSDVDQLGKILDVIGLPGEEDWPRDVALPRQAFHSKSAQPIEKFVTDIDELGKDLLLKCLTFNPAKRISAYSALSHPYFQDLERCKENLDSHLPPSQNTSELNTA
CDK6/cyclinD3 human, sequence (P30281 whole entry partner): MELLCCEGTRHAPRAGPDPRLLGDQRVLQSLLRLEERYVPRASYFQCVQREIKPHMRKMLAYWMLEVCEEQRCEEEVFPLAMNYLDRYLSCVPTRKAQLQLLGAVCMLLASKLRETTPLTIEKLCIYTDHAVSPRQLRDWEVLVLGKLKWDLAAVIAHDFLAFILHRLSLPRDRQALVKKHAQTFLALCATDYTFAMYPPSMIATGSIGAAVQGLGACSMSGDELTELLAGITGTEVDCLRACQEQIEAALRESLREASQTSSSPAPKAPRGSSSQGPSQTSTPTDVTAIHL

SMILES: O=C1CN2CCN(CC2)Cc2cccc(c2)Nc2ncnc(n2)-c2ccnc(c2)CCCN1 [Compound 36]
- C2 Score [1]: 4 (Score 4=>80% increase in D-glucose incorporation)
- IC50 [2]: < 10 nM
- C3.2 score [3]: 4 (Score 4 = >80% inhibition)
- C3.10 score [4]: 1 (Score 1 = 10-30% inhibition)
- C3.7 score [5]: 1 (Score 1 = 10-30% inhibition)
